Test results from US8092790B2, “Methods of making formulations to affect insect behavior and/or bird behavior” (Bug Buster, Ltd., priority 2003, dated 2012).

Assays:
[1] = tested on: corn ear worm (Heliothus zea); test: Crop field trials with lambda cyalothrin insecticide, corn ear worm larvae; assay type: in vivo
From the text: An exemplary compound, methyl anthranilate, was combined with fatty acid and applied to crop fields (again, this formulation will also repel at least some birds), contemporaneously, an insecticide having a pyrethrin, lambda cyalothrin, as an active ingredient was applied to crop fields (e.g., WARRIOR™).
In another trial, an insecticide that included a pyrethrin, lambda cyalothrin, was applied to crop fields (e.g., WARRIOR™). […] Later, an exemplary compound, methyl anthranilate, combined with a fatty acid, was applied to the same crop field. […] An exemplary composition included an exemplary compound, methyl anthranilate, fatty acid and an insecticide that included a pyrethrin, lambda cyalothrin, as an active ingredient (e.g., WARRIOR™). The exemplary composition was applied to crop fields.

[2] = tested on: banded sunflower moth (Cochylis hospes), sunflower seed head larvae; test: Sunflower field application, seed head larvae; assay type: in vivo; conditions: BIRDSHIELD at 0.006%, approx. two weeks after ASANA; within a minute of application
From the text: An insecticide such as ASANA™ (active ingredient esfenvalerate) is suitable for use in controlling banded sunflower moth (Cochylis hospes). An exemplary composition that included an exemplary compound, methyl anthranilate (e.g., BIRDSHIELD™), was applied to sunflowers.
(§1) An insecticide, ASANA™, was applied to sunflowers. Approximately two weeks later, an exemplary compound, methyl anthranilate (e.g., BIRDSHIELD™ at 0.006%) was applied to the same sunflowers. […] This behavior caused the larvae to fall off of the flower portions of the sunflowers. In addition, the exemplary compound affected behavior of other insects on the treated sunflowers.

mites and spiders = test: Sunflower field application, other insects on treated sunflowers; assay type: in vivo; conditions: BIRDSHIELD at 0.006%, approx. two weeks after ASANA
From the text: as §1

[3] = tested on: larvae in a laboratory growing medium; test: Application to larvae in laboratory growing medium; assay type: in vivo; conditions: control group remained in growing medium
From the text: Trials involved applying an exemplary compound to larvae in a laboratory growing medium.
An exemplary compound, methyl anthranilate (e.g., BIRDSHIELD™) was applied to insects that were first allowed to adapt to a laboratory environment. A control group of insects were not exposed to the exemplary compound.

[4] = tested on: house flies (Drosophila melanogater); test: Three-section Petri dish choice test; assay type: in vivo
From the text: Colonies of house flies (Drosophila melanogater) were selected for subsequent placement in covered Petri dishes wherein each Petri dish was divided into three sections. One of the sections, a center section, was used as a control. An exemplary compound, methyl anthranilate (e.g., BIRDSHIELD™ at 0.006%) was applied to a piece of filter paper and placed in a first section while an […] (e.g., deionized water), was applied to another piece of filter paper and placed in second section. Flies were then released into the center control section and lids were placed on the Petri dishes.
More specifically, 100 captive flies were used and the sections were approximately equal in size, e.g., 33% of total space per section. Flies were released into the neutral zone of each Petri dish and monitored after 15 minutes and one hour.

insects = test: Glue coated cardboard traps in a field; assay type: in vivo
Procedure: Trials were performed using an exemplary compound as part of a trapping device (e.g., a glue coated cardboard surface). Five traps were each treated with a 1 ml solution of 0.0156%, 0.03125%, 0.0625%, 0.125% and 0.25% methyl anthranilate, respectively. The treated traps were then placed at relatively random locations in a field. An untreated trap was placed adjacent to each treated trap and the number of insects adhered to each trap recorded as a function of time.

[5] = tested on: house flies (D. melanogater); test: Treated aluminum siding section on building; assay type: in vivo; conditions: 0.025%
From the text: (§2) An exemplary compound, methyl anthranilate (e.g. Bird Shield™) was applied at 0.025% concentration to a three foot by one foot (three square feet) section of aluminum siding (treated section) and compared with a equal sized section of aluminum siding (untreated section) on the side of a building. Approximately 23 to 25 house flies (D. melanogater) had landed and were resting on each section. […] All of the flies on the untreated section remained. […] Twenty-three flies remained on the adjacent untreated section.

house flies = test: Treated aluminum siding section on building; assay type: in vivo, D. melanogater; conditions: 0.025%, thirty minutes after application
From the text: as §2

[6] = tested on: striped sunflower head moth larvae; test: Exemplary compound on sunflowers previously sprayed with esfenvalerate, moth larvae emerging; assay type: in vivo
From the text: An exemplary compound, methyl anthranilate, was combined with long chain fatty acids. An exemplary method applied the mixture to fifteen maturing sunflowers in the interior of two fields that were previously sprayed with an insecticide, esfenvalerate (e.g., the insecticide product ASANA™). The mixture that included the exemplary compound was applied by spraying the mixture across the head of each flower (e.g., where seeds exist). The number of striped sunflower head moth larvae and weevils, emerging from the seeds, was recorded.

ant nest = test: Treatment of ant nest; assay type: in vivo; conditions: diluted form; about 24 hours post-application
From the text: An exemplary method includes applying an exemplary compound or an exemplary composition to an insect nest.

birds = conditions: in vivo; cited from earlier work
Aenictus = conditions: in vivo; cited from earlier work
Camponotus spp. = conditions: in vivo; cited from earlier work
Ceranisus menes = conditions: in vivo; cited from earlier work
T. tabaci = conditions: in vivo; cited from earlier work
[7] = tested on: Thaumatomyia glabra (Meigen) flies; conditions: in vivo; cited from earlier work

Compound: COC(=O)c1ccccc1N [methyl anthranilate]
- corn ear worm larvae on the ground ([1]; combined with a fatty acid, applied later to field already treated with lambda cyalothrin, within a day): littered the ground
- corn ear worm larvae on the ground ([1]; combined with fatty acid, applied contemporaneously with lambda cyalothrin insecticide (WARRIOR), within a day of treatment): littered the ground
- appearance of sunflower seed head larvae [2]: began to appear on the surface of the sunflowers
- behavior of mites and spiders on treated sunflowers (mites and spiders): observed to appear from spaces between maturing seeds and to subsequently fall off the flower portion of the sunflowers
- behavior of exposed insects [3]: emerged quickly from the laboratory growing medium
- fly response to treated section ([4]; 0.006% on filter paper, within one hour): avoided the section treated with the exemplary compound
- fly response to treated areas ([4]; approximately 0.00025%): relatively neutral
- fly response to treated areas ([4]; approximately 0.0025%): somewhat neutral
- fly response to treated areas ([4]; approximately 0.025%): avoided the treated areas
- fly response to treated areas ([4]; approximately 0.25%, 100 flies, monitored after 15 minutes and one hour): avoided the treated areas
- number of insects adhered to trap (insects; 0.0156 percent, 1 min): 3
- number of insects adhered to trap (insects; 0.0156 percent, 5 min): 22
- number of insects adhered to trap (insects; 0.0156 percent, 10 min): 75
- number of insects adhered to trap (insects; 0.0156 percent, 20 min): >75
- number of insects adhered to trap (insects; 0.0313 percent, 1 min): 5
- number of insects adhered to trap (insects; 0.0313 percent, 5 min): 15
- number of insects adhered to trap (insects; 0.0313 percent, 10 min): 68
- number of insects adhered to trap (insects; 0.0313 percent, 20 min): >68
- number of insects adhered to trap (insects; 0.0625 percent, 1 min): 7
- number of insects adhered to trap (insects; 0.0625 percent, 5 min): 35
- number of insects adhered to trap (insects; 0.0625 percent, 10 min): 128
- number of insects adhered to trap (insects; 0.0625 percent, 20 min): >128
- number of insects adhered to trap (insects; 0.1250 percent, 1 min): 15
- number of insects adhered to trap (insects; 0.1250 percent, 5 min): 62
- number of insects adhered to trap (insects; 0.1250 percent, 10 min): 256
- number of insects adhered to trap (insects; 0.1250 percent, 20 min): >256
- number of insects adhered to trap (insects; 0.2500 percent, 1 min): 43
- number of insects adhered to trap (insects; 0.2500 percent, 5 min): 84
- number of insects adhered to trap (insects; 0.2500 percent, 10 min): 346
- number of insects adhered to trap (insects; 0.2500 percent, 20 min): >346
- flies resting on treated section ([5]; immediately after application): all of the flies departed
- flies on treated section ([5]; one hour after application): no flies were observed trying to land on the treated section
- time flies remained on treated section ([5]; thirty minutes after application): 6 to 8 s
- flies on treated section ([5]; twenty-four hours after application): no flies were observed on the treated section
- flies attempting to land on treated section within a five minute period (house flies): approximately 30 flies
- Number of Moth Larvae, Mean ([6]; Field No 2): 0.86
- Number of Moth Larvae, Total ([6]; Field No 2): 6
- Number of Moth Larvae, Mean ([6]; Field No. 1): 0.57
- Number of Moth Larvae, Total ([6]; Field No. 1): 4
- drawing larvae and weevils out of the seeds ([6]; after the crop had been treated with the insecticide alone): successful in drawing striped sunflower head math larvae out of the seeds
- ant activity at the site of the nest (ant nest): no ant activity was observed
- repellency to birds (birds): exhibit repellency to birds
- semiochemical function for Aenictus (Aenictus): trail semiochemicals
- effect on Camponotus spp. (Camponotus spp.): trigger flight of sexuals from nest
- attraction of Ceranisus menes (Ceranisus menes): are attracted
- attraction of T. tabaci (T. tabaci): did not attract
- attraction of Thaumatomyia glabra flies [7]: attractive
